Measurements from US20250177533A1, “PHOTODYNAMIC THERAPY AND DIAGNOSIS” (RMW CHO Group Limited, priority 2021, published 2025).
Where two headings read alike, the source gives them in different places.

Tests used:
[1] = system: Human ovarian cancer cell line SKOV3; assay: Inherent cytotoxicity (dark toxicity) in SKOV3 cells (AlamarBlue viability); settings: SKOV3, 24 h incubation, no light activation
Experimental: (§1) Serial dilutions were prepared in cell culture media (Dulbecco's Modified Eagle Medium/Nutrient Mixture F-12 (DMEM/F-12)) supplemented with 10% v/v Fetal Bovine Serum, 100 U/mL penicillin, 100 μg/mL streptomycin and the same excipient solution at a constant 1:55 dilution.
(§2) Human ovarian cancer cell line SKOV3 (ATCC #HTB-77) was maintained in Dulbecco's Modified Eagle Medium/Nutrient Mixture F-12 (DMEM/F-12), supplemented with 10% v/v Fetal Bovine Serum, 100 U/mL penicillin and 100 μg/mL streptomycin. Monolayer cultures were grown in a humidified incubator at 37° C. with 5% CO2. Once cells had reached ˜80% confluence, spent media was replaced with media containing photosensitizer at the required concentration and cells were incubated for the desired period of time to allow photosensitizer uptake.
(§3) Spectral absorbance and viability measurements were normalized in the range 0-100%, with a minimum of 0 and a maximum value determined from the dataset. Dose response was determined using a sigmoidal four-point non-linear regression with variable slope, and IC10 or IC90 calculated for each compound. All data are shown as mean±SD (where appropriate).
(§4) On reaching ˜60% confluence, media was aspirated and replaced with fresh media containing the relevant phyllochlorin analogue from 0-100 μM in DMSO.
(§5) Untreated cells were used as a control. […] All measurements were made in quadruplicate.
(§6) The phototoxicity and inherent cytotoxicity (i.e. “dark toxicity”) of phyllochlorin analogues were assessed as previously using SKOV3 ovarian cancer cells. For comparative purposes, phyllochlorin analogues were compared against chlorin e4 disodium and Talaporfin sodium, a clinically approved photosensitizer used in the photodynamic treatment of lung cancers.

[2] = system: SKOV3 ovarian cancer cells; assay: Photosensitizer uptake into SKOV3 cancer cells (absorbance of cell lysates at 405 nm); settings: SKOV3, 5 μM
Experimental: (§7) SKOV3 cells were seeded in 96-well black wall plates (Greiner #655090) at a cell density of 5000 cells in 100 μl culture medium per well. […] Cells were incubated for up to 18 hours. At time periods of 10 min, 20 min, 30 min, 60 min, 2 hrs, 4 hrs and 18 hrs, media was removed and the cells lysed in 100 μl of lysis buffer (PBS+1% SDS+1% PVP+Benzonase Nuclease 500 units/mL). Each sample was snap-frozen on dry ice until use.
(§8) Eight point standard curves using compound 1 or chlorin e4 disodium were constructed in the range 0-10 μM using serial dilutions in lysis buffer. Cell lysates (100 μl) were thawed, centrifuged at room temperature (21,000 g, 10 mins) and the supernatants transferred to fresh tubes. 100 μl of each supernatant was added neat to 96-well microplates and absorbance measured at 405 nm using a Cytation 3 multimode plate reader. All wells were measured against blank wells containing buffer alone, and a background value measured using untreated cells was subtracted from all samples. The concentration of each chlorin species was determined against the appropriate standard curve in each case.
(§9) Chlorin e4 disodium (which enters cells via a passive diffusion process) was included as a comparator, and untreated cells were used as a control. Cells were harvested at time periods from 10 mins to 18 hours post addition of photosensitizers, cells were lysed and the supernatants measured for uptake of photosensitizers against an appropriate standard curve.

E coli DH5α cells = assay: Photosensitizer uptake into bacterial cells (absorbance spectra of lysates); format: cell-based; settings: 50 μM, incubated overnight
Experimental: E coli DH5α cells were inoculated into LB media and incubated overnight (shaking at 37° C.) in the presence of 50 μM compound 1 or chlorin e4 disodium. Untreated cells acted as the control. The following day cells were harvested by centrifugation (5000 g, 10 mins, room temperature) and lysed by addition of PBS+1% SDS (w/v)+1% PVP-17 (w/v). Insoluble material was pelleted by centrifugation at 21,000 g (10 mins, bench top centrifuge) and the supernatant transferred to a fresh tube. A 100 μl aliquot was added to clear 96-well microtitre plates and absorbance spectra measured between 600-700 nm (Cytation 3 multimode plate reader). The optical density (OD) was plotted against wavelength in each case to determine uptake of photosensitizer into cells.

[3] = system: Human ovarian cancer cell line SKOV3; assay: Phototoxicity in SKOV3 cells (660 nm laser or LED, AlamarBlue viability); format: cell-based; settings: for IC90: SKOV3, 24 h uptake, viability 24 h later
Description: All data are shown as mean±SD (where appropriate).
Media was then replaced with fresh media containing AlamarBlue, and % viable cells remaining assessed as above. […] All measurements were made in quadruplicate.

[4] = system: Human ovarian cancer cell line SKOV3; settings: 24 h
Experimental: as §1, §2, §3, §4, §5, §6

[5] = Determination of solubility of phyllochlorin analogues (absorbance maxima as surrogate measure); format: physicochemical
Experimental: Absorbance maxima were used as a surrogate measure of solubility. The relevant phyllochlorin analogue was diluted to 50 μM in PBS (phosphate buffered saline) solutions containing decreasing amounts of DMSO from 100% to 0%.
Where required, polyvinylpyrrolidone (K30) was added to a final concentration of 1% w/v. Absorbance was measured using a Cytation 3 Multimode Plate Reader (Biotek) in spectral scanning mode, with spectra captured between 500-800 nm in 2 nm increments. Equivalent blank solutions were also measured and subtracted accordingly. Each spectrum was normalized to have a minimum signal of 0, and a maximum signal in pure DMSO solution (the most soluble state) of 100%.
The solubility of compound 1 was assessed in solutions containing DMSO as an organic solvent. Compound 1 (50 μM final concentration) was resuspended in 100% DMSO to fully dissolve compound 1, in the presence or absence of 1% PVP (w/v). With concentrations of compound 1 maintained at 50 μM the % DMSO was decreased in a stepwise manner from 100% to 0%. All solutions were mixed by vortexing, then centrifuged for 2 mins to pellet any insoluble material. A 150 μl aliquot was transferred to individual wells of a 96-well clear microplate, and absorbance spectra collected between 500-800 nm in 2 nm increments. Equivalent solutions containing decreasing % DMSO were used to control for background.

[6] = system: SKOV3 ovarian cancer cells; settings: human, 5 μM
Experimental: as §7, §8, §9

[7] = 660 nm laser 50 mW/cm^2 for 5 mins (15 J/cm^2), read-out: Phototoxicity μM (IC90)
[8] = Homo sapiens, SK-OV-3, light or radiation study, 660 nm LED panel 50 mW/cm^2 for 5 mins (15 J/cm^2), read-out: Phototoxicity μM (IC90), measured by LED

In the case of `C=Cc1c(C)c2cc3nc(c(C)c4[nH]c(cc5nc(cc1[nH]2)C(C)=C5CC)c(C)c4C(=O)O)[C@@H](CCC(=O)O)[C@@H]3C` [Chlorin e4 disodium, reference compound], the “Dark toxicity μM (IC10)” value [1] is reported as 40.23 µM, the detectability in cells [2] is reported as “undetectable until after one hour of incubation” and the “time of reaching maximum accumulation” value [2] is reported as 18 h. For the same compound, the “detection in bacterial lysates” value (E coli DH5α cells) was “detected marginally above background” and the IC90 [3, 7] was 21.3 µM.
With `CCC1=C(C)c2cc3[nH]c(cc4nc(c(C)c5cc(C)c(cc1n2)[nH]5)[C@@H](CCC(=O)OC)[C@@H]4C)c(C)c3C(C)OCCCS[C@@H]1O[C@H](CO)[C@@H](O)[C@H](O)[C@H]1O` (stereo partly drawn) [Compound 1, methyl 3-((7S,8S)-18-ethyl-2,5,8,12,17-pentamethyl-13-(1-(3-(((2S,3R,4S,5S,6R)-3,4,5-trihydroxy-6-(hydroxymethyl)tetrahydro-2H-pyran-2-yl)thio)propoxy)ethyl)-7H,8H-porphyrin-7-yl) propanoate] the “Dark toxicity μM (IC10)” value [4] was 13.500 µM, the apparent solubility ([5]; 50 μM, DMSO concentrations below 40%) was about 45% and the solubility ([5]; 50 μM, concentrations above 70% DMSO) was “completely soluble”. For the same compound, the “solubility in aqueous solution” value ([5]; 50 μM, no DMSO, addition of PVP 1%) was ~75 % of maximal, the absorbance maxima ([5]; in the presence of 1% PVP (w/v)) was 650±2 nm and the “detection in bacterial lysates” value (E coli DH5α cells) was “clearly detectible”. The “observed in cells (time of incubation)” value [6] was at most 10 min, the rate of uptake [6] was “substantially faster than that of chlorin e4 disodium” and the “time the rate of uptake was maintained after addition of photosensitizer” value [6] was 2 to 4 h. For the same compound, the IC90 ([3]; Homo sapiens, SK-OV-3, light or radiation study, 660 nm laser 50 mW/cm^2 for 5 mins (15 J/cm^2), read-out: Phototoxicity μM (IC90)) was 0.06 µM.
For `CCC1=C(C)c2cc3[nH]c(cc4nc(c(C)c5cc(C)c(cc1n2)[nH]5)[C@@H](CCC(=O)OC)[C@@H]4C)c(C)c3COC(=O)NCCCOCCC[P+](c1ccccc1)(c1ccccc1)c1ccccc1` [Compound 40, phyllochlorin methyl ester 13-(N-(3-(3-triphenylphosphoniumpropoxy)propyl)chloride)carbamate], the “Dark toxicity μM (IC10)” value [1] was 0.6145 µM and the IC90 [3, 8] was 0.0008 µM.
In the case of `CCC1=C(C)c2cc3[nH]c(cc4nc(c(C)c5cc(C)c(cc1n2)[nH]5)[C@@H](CCC(=O)OC)[C@@H]4C)c(C)c3COC(=O)NCCC[P+](c1ccccc1)(c1ccccc1)c1ccccc1` [Compound 45, phyllochlorin methyl ester 13-(N-(3-triphenylphosphoniumpropyl)bromide)carbamate], the “Dark toxicity μM (IC10)” value [1] is reported as 3.977 µM and the IC90 [3, 8] is reported as 0.0012 µM.
For `CCC1=C(C)c2cc3[nH]c(cc4nc(c(C)c5cc(C)c(cc1n2)[nH]5)[C@@H](CCC(=O)N(C)CCOC)[C@@H]4C)c(C)c3COC(=O)NCCC[P+](c1ccccc1)(c1ccccc1)c1ccccc1` [Compound 50, phyllochlorin N-methyl-N-(2-methoxy)ethyl propylamide 13-(N-(3-triphenylphosphoniumpropyl)bromide)carbamate], the “Dark toxicity μM (IC10)” value [1] was 0.470 µM and the IC90 [3, 8] was 0.0016 µM.
For `CCC1=C(C)c2cc3[nH]c(cc4nc(c(C)c5cc(C)c(cc1n2)[nH]5)[C@@H](CCC(=O)NCCOC)[C@@H]4C)c(C)c3COC(=O)NCCC[P+](c1ccccc1)(c1ccccc1)c1ccccc1` [Compound 52, phyllochlorin N-(2-methoxy)ethyl propylamide 13-(N-(3-triphenylphosphoniumpropyl)bromide)carbamate], the “Dark toxicity μM (IC10)” value [1] was 1.060 µM and the IC90 [3, 8] was 0.0052 µM.
For `CCOC(=O)CC[C@@H]1c2nc(cc3[nH]c(cc4nc(cc5[nH]c(cc5C)c2C)C(CC)=C4C)c(COC(=O)NCCC[P+](c2ccccc2)(c2ccccc2)c2ccccc2)c3C)[C@H]1C` [Compound 53, phyllochlorin ethyl ester 13-(N-(3-triphenylphosphoniumpropyl)bromide)carbamate], the “Dark toxicity μM (IC10)” value [1] was 2.240 µM, the IC90 [3, 8] was 0.00077 µM and the “greater phototoxicity compared to Talaporfin sodium” value ([3]; SKOV3, IC90) was 5 orders of magnitude.
In the case of `C=Cc1c(C)c2cc3nc(c(CC(=O)N[C@@H](CC(=O)O)C(=O)O)c4[nH]c(cc5nc(cc1[nH]2)C(C)=C5CC)c(C)c4C(=O)O)[C@@H](CCC(=O)O)[C@@H]3C` [Talaporfin sodium, reference compound], the “Dark toxicity μM (IC10)” value [1] is reported as 11.10 µM.
With “phyllochlorin 13-(N-(3-(3-triphenylphosphoniumpropoxy)propyl)chloride)carbamate N-methyl-N-3,6,9-trioxadecyl propylamide [Compound 44]” the “Dark toxicity μM (IC10)” value [1] was 0.5603 µM and the IC90 ([3]; 660 nm LED panel 50 mW/cm^2 for 5 mins (15 J/cm^2), read-out: Phototoxicity μM (IC90), measured by LED) was 0.0057 µM.
For “phyllochlorin methyl ester 3-triphenylphosphonium bromide propyl ether [Compound 21]”, the “Dark toxicity μM (IC10)” value [1] was 3.801 µM and the IC90 [3, 7] was 0.012 µM.
